The source of these data is patent US11214803B2, “Modulators of YAP1 expression” (Ionis Pharmaceuticals, Inc., priority 2019, dated 2022).

Strand notation (5' to 3'): a small letter for the sugar, then the base; units joined by * are phosphorothioate-linked, units joined directly phosphodiester-linked; [ ] holds rarer units or linkages, { } end groups; capitals alone tell only the bases. k = constrained ethyl (cEt); [5mC] = 5-methylcytosine; d = 2'-deoxy (DNA)

The first data set has as its system Yap1 mRNA. Briefly: Antisense inhibition of human Yap1 in A-431 cells by cEt gapmers, single dose (Example 3, RTS36584). The conditions noted are these: Table 8; A-431 cells, 5,000 cells per well, free uptake, 2,000 nM, approximately 48 hours; RTS36584; normalized to RIBOGREEN; Yap1 mRNA relative to untreated control cells. Type of data set: cell-based. The method in brief: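 Read-out is Yap1 mRNA as percent of untreated control, by quantitative RT-PCR normalized to total RNA (RiboGreen). Cells (A-431) received 2,000 nM of 3-10-3 cEt phosphorothioate gapmer via free uptake for roughly 48 hours.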
Take “958392 (antisense k[5mC]*kT*kA*dT*dG*dA*dG*dT*d[5mC]*dA*dA*d[5mC]*d[5mC]*kT*kG*k[5mC]) [Compound 958392]”: the “YAP1 (% UTC)” value turned out to be 50 % UTC.

With “958404 (antisense kG*k[5mC]*kA*d[5mC]*dA*d[5mC]*dA*dA*d[5mC]*dT*d[5mC]*dA*dG*kA*k[5mC]*kA) [Compound 958404]”, the “YAP1 (% UTC)” value is 52 % UTC.

As to “958372 (antisense kG*kG*kT*dG*d[5mC]*dT*dA*dG*d[5mC]*dT*dG*dG*dT*kG*k[5mC]*k[5mC]) [Compound 958372]”, the “YAP1 (% UTC)” value stood at 49 % UTC.

“958348 (k[5mC]*kG*kA*dG*dT*d[5mC]*d[5mC]*d[5mC]*d[5mC]*dG*d[5mC]*dG*dG*kA*k[5mC]*kG; antisense) [Compound 958348]”: the “YAP1 (% UTC)” value turned out to be 122 % UTC.

Still in this data set, the particulars now being: Table 9; A-431 cells, 5,000 cells per well, free uptake, 2,000 nM, approximately 48 hours; RTS36584; normalized to RIBOGREEN; Yap1 mRNA relative to untreated control cells.
In the case of “958456 (antisense kG*kG*k[5mC]*d[5mC]*dA*dG*dA*dG*dA*d[5mC]*dT*dA*d[5mC]*kT*k[5mC]*k[5mC]) [Compound 958456]”, the “YAP1 (% UTC)” value amounted to 90 % UTC.

For the substance “958606 (antisense kT*k[5mC]*k[5mC]*dA*d[5mC]*d[5mC]*dT*dG*dA*dG*d[5mC]*dA*d[5mC]*kT*k[5mC]*kA) [Compound 958606]”, the “YAP1 (% UTC)” value amounted to 31 % UTC.

Regarding “958596 (kA*kG*k[5mC]*dA*dG*dT*dT*dA*dA*dG*d[5mC]*dA*d[5mC]*kT*kT*kT; antisense) [Compound 958596]”, the “YAP1 (% UTC)” value amounted to 3 % UTC.

As to “958616 (antisense kG*kG*kT*dG*dG*dT*d[5mC]*dT*dT*dG*dT*dT*d[5mC]*kT*kT*kA) [Compound 958616]”, the “YAP1 (% UTC)” value stood at 10 % UTC.

As for “958546 (k[5mC]*kA*kT*dA*d[5mC]*dT*d[5mC]*dT*dA*dG*dT*dT*dA*k[5mC]*kA*kT; antisense) [Compound 958546]”, the “YAP1 (% UTC)” value was determined as 6 % UTC.

Consider “958816 (kG*kT*kG*dA*dT*dA*dA*d[5mC]*dA*dT*dA*dT*d[5mC]*k[5mC]*k[5mC]*kA; antisense) [Compound 958816]”, for which the “YAP1 (% UTC)” value amounted to 71 % UTC.

For “958491 (kA*k[5mC]*kT*dA*dA*dA*dT*dG*d[5mC]*dT*dG*dT*dG*kA*k[5mC]*kA; antisense) [Compound 958491]”, the “YAP1 (% UTC)” value is reported as 4 % UTC.

The data set is the same for the next values; noted with them: Table 10; A-431 cells, 5,000 cells per well, free uptake, 2,000 nM oligonucleotide, approx. 48 hours; primer probe set RTS36584; Yap1 mRNA normalized to RIBOGREEN, percent of untreated control.
Regarding “958722 (antisense k[5mC]*kA*kT*dA*dA*dT*dA*dG*dG*dA*d[5mC]*dA*d[5mC]*kA*kA*k[5mC]) [Compound 958722]”, the “YAP1 (% UTC)” value worked out at 59 % UTC.

Consider “958602 (kT*kG*k[5mC]*d[5mC]*dA*dT*dG*dT*dT*d[5mC]*d[5mC]*dA*dT*kA*kT*kA; antisense) [Compound 958602]”, for which the “YAP1 (% UTC)” value came out at 16 % UTC.

With “958587 (kG*kG*kT*dG*dA*d[5mC]*dT*dG*dA*dA*dA*d[5mC]*dT*k[5mC]*kT*kA; antisense) [Compound 958587]”, the “YAP1 (% UTC)” value came out at 2 % UTC.

For the substance “958592 (k[5mC]*kG*kT*dA*dA*dG*dA*dT*d[5mC]*dA*dA*dA*dG*k[5mC]*kA*k[5mC]; antisense) [Compound 958592]”, the “YAP1 (% UTC)” value is recorded as 12 % UTC.

Turning to “958492 (kT*kG*kT*d[5mC]*dA*dG*dA*d[5mC]*d[5mC]*dA*dG*dT*dA*kA*kA*kT; antisense) [Compound 958492]”, the “YAP1 (% UTC)” value came out at 12 % UTC.

“958672 (kG*kA*kA*d[5mC]*dT*dT*dA*dG*dT*dT*d[5mC]*d[5mC]*d[5mC]*kT*kT*k[5mC]; antisense) [Compound 958672]”: the “YAP1 (% UTC)” value was found to be 67 % UTC.

Staying with this data set, now noted: Table 11; A-431 cells, 5,000 cells per well, free uptake, 2,000 nM oligonucleotide, approx. 48 hours; primer probe set RTS36584; Yap1 mRNA normalized to RIBOGREEN, percent of untreated control.
On to “958448 (antisense kG*k[5mC]*kG*dA*dA*dG*dG*d[5mC]*dG*dG*d[5mC]*dT*dG*k[5mC]*k[5mC]*k[5mC]) [Compound 958448]”, for which the “YAP1 (% UTC)” value is 86 % UTC.

“958568 (kT*kA*kT*dG*dA*dG*dT*dG*dA*dT*d[5mC]*dA*dA*k[5mC]*k[5mC]*kT; antisense) [Compound 958568]”: the “YAP1 (% UTC)” value turned out to be 5 % UTC.

Still in this data set, the particulars now being: Table 12; A-431 cells, 5,000 cells per well, free uptake, 2,000 nM modified oligonucleotide, approx. 48 hours; RTS36584; normalized to RIBOGREEN; Yap1 mRNA relative to untreated control cells.
For “958484 (antisense kG*k[5mC]*kA*dG*d[5mC]*dA*dA*dT*dG*dG*dA*d[5mC]*dA*kA*kG*kG) [Compound 958484]”, the “YAP1 (% UTC)” value came to 2 % UTC.

As to “958724 (antisense kT*k[5mC]*kA*dG*dT*dT*dA*dT*d[5mC]*d[5mC]*dT*dA*dT*k[5mC]*k[5mC]*k[5mC]) [Compound 958724]”, the “YAP1 (% UTC)” value is 2 % UTC.

In the case of “958774 (antisense kT*kG*k[5mC]*dT*dA*dG*dA*dT*dA*dT*d[5mC]*dG*d[5mC]*k[5mC]*kA*kA) [Compound 958774]”, the “YAP1 (% UTC)” value worked out at 33 % UTC.

The same data set, now with this note: Table 13; A-431 cells, 5,000 cells per well, free uptake, 2,000 nM modified oligonucleotide, approx. 48 hours; RTS36584; normalized to RIBOGREEN; Yap1 mRNA relative to untreated control cells.
As for “958570 (kT*kG*kT*dA*dA*dT*dT*d[5mC]*dA*dT*dA*dT*dA*k[5mC]*k[5mC]*k[5mC]; antisense) [Compound 958570]”, the “YAP1 (% UTC)” value is recorded as 5 % UTC.

Turning to “958535 (kG*kG*kG*dT*d[5mC]*dA*dA*dT*dT*dT*dT*d[5mC]*dA*kG*k[5mC]*kA; antisense) [Compound 958535]”, the “YAP1 (% UTC)” value amounted to 10 % UTC.

Turning to “958715 (antisense kG*kT*kA*dA*dT*dA*dG*dG*dA*dG*dG*dT*dA*kA*kG*kA) [Compound 958715]”, the “YAP1 (% UTC)” value turned out to be 48 % UTC.

As to “958505 (kG*kA*kT*dA*dA*dT*d[5mC]*dG*dA*dG*dA*dT*dT*kT*kA*kA; antisense) [Compound 958505]”, the “YAP1 (% UTC)” value is given as 6 % UTC.

With “958625 (antisense kT*kG*k[5mC]*dT*dG*dG*dG*dA*dT*dT*dG*dA*dT*kA*kT*kT) [Compound 958625]”, the “YAP1 (% UTC)” value was 6 % UTC.

Staying with this data set, now noted: Table 26; Yap1 mRNA by 3-10-3 cEt gapmers targeting SEQ ID NO.: 1, and 2; percent of untreated control.
As to “1075692 (kT*kA*kA*dG*dA*dA*d[5mC]*dA*d[5mC]*d[5mC]*dA*dT*dA*kG*k[5mC]*kA; antisense) [compound 1075692]”, the “YAP1 (% UTC)” value was determined as 11 % UTC.

Regarding “1075436 (antisense k[5mC]*k[5mC]*kT*dT*dA*dA*dA*d[5mC]*dG*dA*dT*dA*dA*kA*kG*kT) [compound 1075436]”, the “YAP1 (% UTC)” value was found to be 89 % UTC.

With “1074828 (kA*kT*kA*dA*dA*dA*dT*d[5mC]*d[5mC]*dA*d[5mC]*d[5mC]*dT*kG*kA*kG; antisense) [compound 1074828]”, the “YAP1 (% UTC)” value worked out at 58 % UTC.

As for “1074892 (k[5mC]*kT*kG*dA*dA*dG*dT*dT*dT*dA*dG*d[5mC]*d[5mC]*kT*kG*kA; antisense) [compound 1074892]”, the “YAP1 (% UTC)” value was 42 % UTC.

The data set is the same for the next values; noted with them: Table 27; Yap1 mRNA by 3-10-3 cEt gapmers targeting SEQ ID NO.: 1, and 2; percent of untreated control.
As for “1076173 (k[5mC]*kA*kA*dT*dA*dT*dA*dT*d[5mC]*d[5mC]*dT*dG*dA*kG*kA*kT; antisense) [compound 1076173]”, the “YAP1 (% UTC)” value is 91 % UTC.

The data set is the same for the next values; noted with them: Table 28; Yap1 mRNA as percent of untreated control; 3-10-3 cEt gapmers targeting SEQ ID NO.: 1, and 2.
For “1074926 (antisense k[5mC]*kA*kA*d[5mC]*dA*dG*dG*d[5mC]*d[5mC]*dT*dG*d[5mC]*dA*kA*kA*kT) [compound 1074926]”, the “YAP1 (% UTC)” value came to 111 % UTC.

Staying with this data set, now noted: Table 29; Yap1 mRNA as percent of untreated control; 3-10-3 cEt gapmers targeting SEQ ID NO.: 1, and 2.
As for “1074415 (kG*k[5mC]*k[5mC]*dA*dA*d[5mC]*dT*dG*dT*dG*dA*dA*dA*kG*kA*kG; antisense) [compound 1074415]”, the “YAP1 (% UTC)” value was 10 % UTC.

Regarding “1074543 (k[5mC]*k[5mC]*kT*dA*dG*dG*d[5mC]*dA*d[5mC]*dT*dA*dT*d[5mC]*k[5mC]*kA*k[5mC]; antisense) [compound 1074543]”, the “YAP1 (% UTC)” value was found to be 57 % UTC.

For “1076335 (antisense k[5mC]*kA*k[5mC]*d[5mC]*dT*dA*dT*dA*dA*dG*dG*dA*dA*kT*kG*kG) [compound 1076335]”, the “YAP1 (% UTC)” value came to 80 % UTC.

The data set is the same for the next values; noted with them: Table 34; Yap1 mRNA as percent of untreated control; 3-10-3 cEt gapmers targeting SEQ ID NO: 1 and 2; single dose.
With “1075316 (antisense kG*kT*kA*dT*dA*dT*dA*dG*dA*dT*dA*d[5mC]*d[5mC]*k[5mC]*kA*k[5mC]) [compound 1075316]”, the “YAP1 (% UTC)” value was determined as 25 % UTC.

Turning to “1074388 (kG*kA*k[5mC]*dT*dT*dG*dG*d[5mC]*dA*dT*d[5mC]*dA*dG*k[5mC]*kT*k[5mC]; antisense) [compound 1074388]”, the “YAP1 (% UTC)” value is recorded as 16 % UTC.

The same data set, now with this note: Table 35; Yap1 mRNA as percent of untreated control; 3-10-3 cEt gapmers targeting SEQ ID NO: 1 and 2; single dose.
“1074517 (kA*kA*kT*dG*d[5mC]*dA*dT*dA*d[5mC]*dA*dA*dA*dG*k[5mC]*kG*k[5mC]; antisense) [compound 1074517]”: the “YAP1 (% UTC)” value amounted to 55 % UTC.

As to “1076533 (kA*kT*kT*dT*dT*dT*dA*dG*dT*d[5mC]*d[5mC]*dA*dG*kT*kG*kG; antisense) [compound 1076533]”, the “YAP1 (% UTC)” value came to 9 % UTC.

As to “1075669 (antisense kA*kA*kA*dT*dT*dA*dT*dT*dG*dG*dT*dG*dA*k[5mC]*kA*k[5mC]) [compound 1075669]”, the “YAP1 (% UTC)” value was found to be 70 % UTC.

Consider “1074677 (antisense k[5mC]*kT*kA*d[5mC]*dT*dG*dG*d[5mC]*dA*dA*dA*dT*dT*kA*kT*kA) [compound 1074677]”, for which the “YAP1 (% UTC)” value is 22 % UTC.

“1074933 (antisense kA*kG*kG*dA*dG*dA*d[5mC]*dT*dA*dT*dA*d[5mC]*dA*kA*k[5mC]*kA) [compound 1074933]”: the “YAP1 (% UTC)” value was determined as 72 % UTC.
